Results from patent publication US20260199193A1, “POWDERY SOLID COSMETIC” (Shiseido Company, Ltd., priority 2022, published 2026).
Peptide text beside a SMILES is read from it.

Assay: log P value (octanol/water partition coefficient)
Type: physicochemical
Settings: octanol / aqueous buffer solution at pH 7
Description: The log P value of the nonionic water-soluble agent may be 1.8 or less, 1.5 or less, 1.3 or less, or 1.0 or less, and may be −4.0 or more, −3.8 or more, −3.5 or more, −3.3 or more, −3.0 or more, −2.7 or more, or −2.5 or more. The “log P value” herein is a parameter that represents the tendencies of partitioning of a substance into water and octanol, and is a value commonly used as an index to determine the degree of hydrophilicity or hydrophobicity of a substance. The smaller the log P value, the more hydrophilic the substance is meant to be. The larger the log P value, the more hydrophobic the substance is meant to be. The log P value may also be referred to as “octanol/water partition coefficient” according to the method of its calculation. The octanol/water partition coefficient can be determined by adding an agent into a flask containing octanol and an aqueous buffer solution at pH 7, shaking the flask, and then performing calculation according to the following Equation A based on the agent concentration in each phase: […]

Row | SMILES | logP
1 | O=C1NCCN1CCO [1-(2-hydroxyethyl)-2-imidazolidinone] | -1.4
2 | OC[C@H]1O[C@@H](Oc2ccc(O)cc2)[C@H](O)[C@@H](O)[C@@H]1O [arbutin] | -0.7
3 | C[N+](C)(C)CC(=O)[O-] [trimethylglycine] | 0.1
4 | OC[C@H]1O[C@H](O[C@H]2O[C@H](CO)[C@@H](O)[C@H](O)[C@H]2O)[C@H](O)[C@@H](O)[C@@H]1O [trehalose] | -1.7
5 | CCOC1=C(O)[C@@H]([C@@H](O)CO)OC1=O [2-O-ethyl ascorbic acid] | -1.5
6 | OC[C@@H](O)[C@H](O)[C@@H](O)CO [xylitol] | -2.5
7 | O=C1O[C@H]([C@@H](O)CO)C(O)=C1O [L-ascorbic acid] | 1.6
8 | OCC(O)CO [Glycerin] | -1.8
9 | NCCS(=O)(=O)O [taurine] | 1.4
10 | Nc1ncnc2c1ncn2[C@@H]1O[C@H](CO)[C@@H](O)[C@H]1O [adenosine] | -1.1
11 | Cc1ncc(CO)c(CO)c1O [pyridoxine] | -0.8
12 | NC[C@H]1CC[C@H](C(=O)O)CC1 [tranexamic acid, reference compound] | -2
13 | NC(=O)c1cccnc1 [niacinamide] | -0.4
14 | CC(O)CCO (stereo not drawn) [1,3-butylene glycol] | -0.4
15 | NCC(=O)NCC(=O)O [glycylglycine] (H-Gly-Gly-OH) | -2.3
